Assay results reported in patent US20220175768A1, “FGFR TYROSINE KINASE INHIBITORS FOR THE TREATMENT OF UROTHELIAL CARCINOMA” (Janssen Pharmaceutica NV, priority 2019, published 2022).

Experiments:
[1] = study in which nine of 10 patients had disease progression with prior immunotherapy; cited from earlier work
urothelial cancer = test: Best response to prior therapy before study enrolment per investigator assessment; assay type: in vivo, human; conditions: first-line, across all regimens
Description: Across all regimens, 184 patients had received first-line platinum-based chemotherapy, 83 had received second-line chemotherapy, and 24 had received third-line chemotherapy before study enrolment.

Compound | Patients who responded to rogaratinib [1] [%] | Best ORR per investigator assessment to prior chemotherapy (urothelial cancer) [%]
COCc1c(-c2cc3cc(C)cc(OC)c3s2)c2c(N)ncnn2c1CN1CCNC(=O)C1 [rogaratinib] | 30 | 
gemcitabine plus cisplatin |  | 35
